In ChEMBL document CHEMBL2375212, “Synthesis and evaluation of novel marine bromopyrrole alkaloid-based hybrids as anticancer agents” (Eur J Med Chem, 2013):
Converted amounts (≈) assume the structure as drawn.

How the values were obtained:
Caco-2 = experiment: Cytotoxicity against human Caco2 cells compound treated for 6 hrs measured 48 hrs post washout by MTT assay; format: functional, cell-based
PA-1 = experiment: Cytotoxicity against human PA1 cells compound treated for 6 hrs measured 48 hrs post washout by MTT assay; format: functional, cell-based
WRL68 = experiment: Cytotoxicity against human WRL68 cells compound treated for 6 hrs measured 48 hrs post washout by MTT assay; format: functional, cell-based
MCF7 [1] = experiment: Cytotoxicity against human MCF7 cells compound treated for 6 hrs measured 48 hrs post washout by MTT assay; format: functional, cell-based
[2] = Cytotoxicity against human KB403 cells compound treated for 6 hrs measured 48 hrs post washout by MTT assay; format: functional, cell-based
HepG2 = experiment: Cytotoxicity against human HepG2 cells by MTT assay; format: functional, cell-based
P388 = experiment: Cytotoxicity against mouse P388 cells by MTT assay; format: functional; settings: read-out: ED50 (the source's name)
MCF7 [3] = experiment: Cytotoxicity against human MCF7 cells by MTT assay; format: functional, cell-based
[4] = Cytotoxicity against mouse SVEC cells by MTT assay; format: functional, cell-based
[5] = target: Dual specificity mitogen-activated protein kinase kinase 1 (Homo sapiens, UniProt Q02750); experiment: Inhibition of MEK1 (unknown origin)
Chain of Dual specificity mitogen-activated protein kinase kinase 1 (Q02750 whole entry): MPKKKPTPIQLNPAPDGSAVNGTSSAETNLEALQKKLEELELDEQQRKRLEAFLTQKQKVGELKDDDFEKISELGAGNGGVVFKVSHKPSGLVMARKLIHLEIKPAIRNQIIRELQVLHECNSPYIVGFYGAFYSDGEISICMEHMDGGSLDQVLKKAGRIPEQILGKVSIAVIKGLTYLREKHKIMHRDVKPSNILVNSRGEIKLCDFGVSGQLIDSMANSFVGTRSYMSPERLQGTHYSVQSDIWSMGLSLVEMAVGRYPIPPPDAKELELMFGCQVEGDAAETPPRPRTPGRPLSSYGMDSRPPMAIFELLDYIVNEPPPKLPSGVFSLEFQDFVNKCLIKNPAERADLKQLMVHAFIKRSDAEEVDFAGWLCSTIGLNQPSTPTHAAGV

COLO 205 = experiment: Cytotoxicity against human COLO205 cells by MTT assay; format: functional, cell-based

SMILES	IC50 (Caco-2)	IC50 (PA-1)	IC50 (WRL68)	IC50 (MCF7 [1])	IC50 [2]	IC50 (HepG2)	EC50 (P388)	IC50 (MCF7 [3])	IC50 [4]	IC50 [5]	IC50 (COLO 205)
COc1ccc(OC)c(C(=O)/C=C/c2cc(Br)c(Br)n2C)c1	≥ 100 µM	0.8 µM	3.27 µM	0.65 µM	≥ 100 µM	–	–	–	–	–	–
Cn1c(/C=C/C(=O)c2cccc(N)c2)cc(Br)c1Br	≥ 100 µM	≥ 100 µM	≥ 100 µM	12.4 µM	≥ 100 µM	–	–	–	–	–	–
O=c1cc(-c2cc(Br)c(Br)[nH]2)oc2ccccc12	≥ 100 µM	0.41 µM	≥ 100 µM	≥ 100 µM	1.28 µM	–	–	–	–	–	–
Cn1c(/C=C/C(=O)c2ccccc2)cc(Br)c1Br	≥ 100 µM	≥ 100 µM	≥ 100 µM	35.4 µM	≥ 100 µM	–	–	–	–	–	–
O=c1cc(C2CCCCC2)oc2ccccc12	–	–	–	–	–	2.9 µM	–	–	–	–	–
Cn1c(/C=C/C(=O)c2ccc(O)cc2O)cc(Br)c1Br	3.53 µM	0.83 µM	0.18 µM	1.61 µM	12 µM	–	–	–	–	–	–
COC(=O)C[C@H]1CNC(=O)c2cc(Br)c(Br)n21	–	–	–	–	–	–	30 mg/L (≈ 82 µM)	–	–	–	–
Cn1c(/C=C/C(=O)c2ccc(Cl)cc2Cl)cc(Br)c1Br	≥ 100 µM	1 µM	14.7 µM	1.84 µM	≥ 100 µM	–	–	–	–	–	–
Cn1c(-c2cc(=O)c3ccccc3o2)cc(Br)c1Br	≥ 100 µM	0.6 µM	≥ 100 µM	≥ 100 µM	0.67 µM	–	–	–	–	–	–
COC(=O)C(NCC(=O)c1cc(Br)c(Br)[nH]1)C(C)C (centres undefined)	–	–	–	–	–	15.3 mg/L	–	–	–	–	–
COc1ccc(OC)c(C(=O)/C=C/c2cc(Br)c(Br)[nH]2)c1	≥ 100 µM	0.42 µM	12.3 µM	0.22 µM	≥ 100 µM	–	–	–	–	–	–
O=C(/C=C/c1cccc(Cl)c1)c1ccccc1	–	–	–	–	–	–	–	5.25 mg/L (≈ 21.6 µM)	–	–	–
Oc1ccccc1-c1cc(-c2cc(Br)c(Br)[nH]2)on1	≥ 100 µM	≥ 100 µM	≥ 100 µM	≥ 100 µM	16.4 µM	–	–	–	–	–	–
Cn1c(/C=C/C(=O)c2ccccc2O)cc(Br)c1Br	3.16 µM	1.25 µM	0.33 µM	2.51 µM	8.32 µM	–	–	–	–	–	–
Cn1c(/C=C/C(=O)c2ccc[nH]2)cc(Br)c1Br	≥ 100 µM	0.73 µM	2.11 µM	0.45 µM	0.6 µM	–	–	–	–	–	–
CC(=O)O[C@H]1C(=O)[C@@]2(C)[C@H]([C@H](OC(=O)c3ccccc3)[C@]3(O)C[C@H](OC(=O)[C@H](O)[C@@H](NC(=O)c4ccccc4)c4ccccc4)C(C)=C1C3(C)C)[C@]1(OC(C)=O)CO[C@@H]1C[C@@H]2O [PACLITAXEL]	–	0.008 µM	–	–	0.001 µM	–	–	–	–	–	–

SMILES	IC50 (Caco-2)	IC50 (PA-1)	IC50 (WRL68)	IC50 (MCF7 [1])	IC50 [2]	IC50 (HepG2)	EC50 (P388)	IC50 (MCF7 [3])	IC50 [4]	IC50 [5]	IC50 (COLO 205)
Cn1c(-c2cc(-c3ccc[nH]3)no2)cc(Br)c1Br	≥ 100 µM	≥ 100 µM	≥ 100 µM	≥ 100 µM	3.1 µM	–	–	–	–	–	–
COc1ccc(C(=O)/C=C/c2cc(Br)c(Br)[nH]2)c(OC)c1	≥ 100 µM	0.32 µM	9.22 µM	0.03 µM	≥ 100 µM	–	–	–	–	–	–
COc1cc(-c2cc(-c3cc(OC)c(OC)c(OC)c3)on2)ccc1O	–	–	–	–	–	–	–	–	23.5 µM	–	–
O=C(/C=C/c1cc(Br)c(Br)[nH]1)c1ccc[nH]1	≥ 100 µM	0.5 µM	≥ 100 µM	0.072 µM	≥ 100 µM	–	–	–	–	–	–
Cn1c(-c2cc(-c3ccccc3O)no2)cc(Br)c1Br	≥ 100 µM	≥ 100 µM	≥ 100 µM	≥ 100 µM	2.45 µM	–	–	–	–	–	–
O=C(/C=C/c1cc(Br)c(Br)[nH]1)c1ccccc1O	≥ 100 µM	0.33 µM	1.42 µM	1.49 µM	≥ 100 µM	–	–	–	–	–	–
Nc1nc(C2CCNC(=O)c3[nH]c(Br)c(Br)c32)c[nH]1 (centres undefined)	–	–	–	–	–	–	–	–	–	0.006 µM	–
Cn1c(-c2cc(-c3ccccc3)no2)cc(Br)c1Br	16.6 µM	≥ 100 µM	≥ 100 µM	≥ 100 µM	≥ 100 µM	–	–	–	–	–	–
O=C(/C=C/c1cc(Br)c(Br)[nH]1)c1ccccc1	≥ 100 µM	≥ 100 µM	≥ 100 µM	12.2 µM	≥ 100 µM	–	–	–	–	–	–
COc1ccc(C(=O)/C=C/c2cc(Br)c(Br)n2C)c(OC)c1	≥ 100 µM	0.52 µM	0.64 µM	0.08 µM	≥ 100 µM	–	–	–	–	–	–
Cn1c(/C=C/C(=O)c2ccc(O)cc2)cc(Br)c1Br	6 µM	2.85 µM	1.91 µM	3.12 µM	≥ 100 µM	–	–	–	–	–	–
Brc1cc(-c2cc(-c3ccc[nH]3)no2)[nH]c1Br	≥ 100 µM	≥ 100 µM	≥ 100 µM	≥ 100 µM	4.82 µM	–	–	–	–	–	–
Cn1c(/C=C/C(=O)c2cc(O)ccc2O)cc(Br)c1Br	≥ 100 µM	0.38 µM	0.88 µM	0.32 µM	≥ 100 µM	–	–	–	–	–	–
Cn1c(/C=C/C(=O)c2cccc(O)c2)cc(Br)c1Br	≥ 100 µM	≥ 100 µM	≥ 100 µM	12.8 µM	≥ 100 µM	–	–	–	–	–	–
c1ccc(-c2cc(COc3ccccc3-c3nc4ccccc4s3)on2)cc1	–	–	–	–	–	–	–	–	–	–	14.2 µM
